We go through 16 compounds from US9757385B2, “Method of treating leukemia using pharmaceutical formulation containing thienotriazolodiazepine compounds” (ONCOETHIX GmbH, priority 2013, dated 2017).

One series deals with HDAC. To be noted: cited from earlier work.
Another series concerns the target HDAC3 (Homo sapiens, UniProt O15379). To be noted: cited from earlier work.
The next series has as its target FKBP12 (Homo sapiens, UniProt P62942). To be noted: mTOR inhibitor of FKBP12; cited from earlier work.
The next series relates to PI3K/mTOR. To be noted: dual PI3K/mTOR inhibitor; cited from earlier work.
Series [1] concerns Akt phosphorylation on T308. The settings on record: cited from earlier work.
For series [2], the system named is Akt phosphorylation on S473. The settings on record: cited from earlier work.
For the next series, the system named is Reh cells. To be noted: in Reh cells; cited from earlier work.
A further series deals with MOLT-4 cells. The settings on record: in MOLT-4 cells; cited from earlier work.
For a further series, the target named is mTOR (Homo sapiens, UniProt P42345). The settings on record: cited from earlier work.
A further series concerns BRD2 and BRD4. Kind of series: BRD2 and BRD4 mRNA and protein in Jurkat cells. It is filed as cell-based, human.
The subject of series [3] is compound (1-1) sensitive cell lines (HL60, U937 and Jurkat). The series is described as follows: Cell cycle analysis and apoptosis induction. The format is cell-based, human. As to the method: (§1) Four established human cell lines derived from acute (HL60, U937), chronic (K562) myeloid leukemia, and acute lymphoblastic leukemia (Jurkat) were treated with increasing compound (1-1) doses. MTT assays were performed after 72 h exposure. GI50 and Emax values were calculated with the equation for sigmoidal dose response using Prism 5.00. Results are the mean±95% CI of at least 3 independent experiments performed in triplicate. […] Protein levels were analyzed by Western Blot using commercial antibodies. For cell cycle analysis and apoptosis induction, cells were stained with PI or Annexin V respectively, and analyzed using a FACScan flow cytometer. RT-PCR was performed using Fast SYBR Green Master Mix on a StepOnePlus Real-Time PCR System. Cell cycle, apoptosis induction and qRT-PCR results are the mean±SD of at least 3 independent experiments, where *p<0.05, **p<0.001 and ***p<0.0001 versus control cells (0.1% DMSO), employing Anova then Dunnett's Multiple Comparison Test. Compound (1-1) combination studies were performed in cell lines exposed for 48 h to increasing doses of compound (1-1) alone or in combination several conventional anti-leukemic drugs, such as epigenetic modulators, steroids, m-TOR inhibitors and classical cytotoxic agents, and assessed using the Chou & Talalay method. For the sequential combination schemes, cell lines were exposed to azacytidine or panobinostat for 48 or 72 h, washed with drug-free medium and then treated with compound (1-1) for 24 or 48 h. The Combination Index (CI) was determined by median effect plot analysis using CalcuSyn software. CI<1 reflects synergy, CI=1 additivity and CI>1 antagonist effects. Results represent the median and range of 4 independent experiments performed in triplicate.

Series [4] has as its system c-MYC. Kind of series: c-MYC RNA and protein in resistant cell line K562. It is filed as cell-based, human. The method, then: (§2) MTT assays were performed after 72 hours exposure. Protein levels were analyzed by Western Blot using commercial antibodies. RNA was extracted using the Qiagen RNAEasy and RT-PCR was performed using Fast SYBR Green on a StepOnePlus Real-Time PCR System. Combination effects were evaluated in four cell lines (HL60, U937, Jurkat and K562); compound (1-1) was administered with daunorubicin, azacytidine, dexamethasone, cytarabine or methotrexate. The 48 h Combination Index (CI) was determined by median effect plot analysis using CalcuSyn software expressed as the median and range of CI values among cell lines (Chou & Talalay analysis). CI<1 reflects synergy effects, CI=1 reflects additivity and CI>1 reflects antagonist effects.
(§3) Four established human cell lines derived from acute (HL60, U937), chronic (K562) myeloid leukemia, and acute lymphoblastic leukemia (Jurkat) were treated with increasing compound (1-1) doses. MTT assays were performed after 72 h exposure. GI50 and Emax values were calculated with the equation for sigmoidal dose response using Prism 5.00. […] Protein levels were analyzed by Western Blot using commercial antibodies. For cell cycle analysis and apoptosis induction, cells were stained with PI or Annexin V respectively, and analyzed using a FACScan flow cytometer. […] The Combination Index (CI) was determined by median effect plot analysis using CalcuSyn software. […]

Series [5] relates to c-MYC. The series is described as follows: c-MYC mRNA (RT-PCR) and protein (Western Blot) in sensitive cell lines. It is filed as cell-based, human. As to the method: as §2, §3
In general terms: Immunoblotting shows a protein as a band on a membrane.

The test system of a further series is HL60. Kind of series: MTT assay, anti-proliferative effect. The format is cell-based. To be noted: Homo sapiens, HL-60; HL60, 72-h exposure; range given for HL60, U937 and Jurkat together. The method, then: as §2
as §1, with “Cell cycle, apoptosis induction and qRT-PCR results are the mean±SD of at least 3 independent experiments, where *p<0.05, **p<0.001 and ***p<0.0001 versus control cells (0.1% DMSO), employing Anova then Dunnett's Multiple Comparison Test.” left out, “For the sequential combination schemes, cell lines were exposed to azacytidine or panobinostat for 48 or 72 h, washed with drug-free medium and then treated with compound (1-1) for 24 or 48 h.” left out, “CI<1 reflects synergy, CI=1 additivity and CI>1 antagonist effects. Results represent the median and range of 4 independent experiments performed in triplicate.” left out

The next series relates to Jurkat. The series is described as follows: MTT assay, anti-proliferative effect. It is filed as cell-based. The settings on record: Homo sapiens, 72-h exposure, range given for HL60, U937 and Jurkat together. The method, then: as §2
as §1, with “Cell cycle, apoptosis induction and qRT-PCR results are the mean±SD of at least 3 independent experiments, where *p<0.05, **p<0.001 and ***p<0.0001 versus control cells (0.1% DMSO), employing Anova then Dunnett's Multiple Comparison Test.” left out, “For the sequential combination schemes, cell lines were exposed to azacytidine or panobinostat for 48 or 72 h, washed with drug-free medium and then treated with compound (1-1) for 24 or 48 h.” left out, “CI<1 reflects synergy, CI=1 additivity and CI>1 antagonist effects. Results represent the median and range of 4 independent experiments performed in triplicate.” left out
For orientation: Tetrazolium assays rely on reduction of a dye to a coloured formazan, in cell work by metabolically active cells.

The subject of another series is U937. Kind of series: MTT assay, anti-proliferative effect. It is filed as cell-based. The settings on record: Homo sapiens, U-937; U937, 72-h exposure; range given for HL60, U937 and Jurkat together. The method, then:
as §2
as §1, with “Cell cycle, apoptosis induction and qRT-PCR results are the mean±SD of at least 3 independent experiments, where *p<0.05, **p<0.001 and ***p<0.0001 versus control cells (0.1% DMSO), employing Anova then Dunnett's Multiple Comparison Test.” left out, “For the sequential combination schemes, cell lines were exposed to azacytidine or panobinostat for 48 or 72 h, washed with drug-free medium and then treated with compound (1-1) for 24 or 48 h.” left out, “CI<1 reflects synergy, CI=1 additivity and CI>1 antagonist effects. Results represent the median and range of 4 independent experiments performed in triplicate.” left out

Series [6] has as its system K-562, NALM-1, CCRF-CEM, MOLT-3 and -4. Kind of series: MTT assay, anti-proliferative effect, rest of the panel. The format is cell-based. To be noted: Homo sapiens; the rest of the eight cell lines, 72-h exposure. The method, then: as §2
The test system of series [7] is HL60, U937, Jurkat and K562. The series is described as follows: Combination Index, Chou & Talalay median effect analysis. To be noted: OTX015-sensitive and resistant leukemic cells lines. The format is cell-based, human.
In the next series the target is PI3Kβ (p110β) (Homo sapiens, UniProt P42338). To be noted: cited from earlier work.
The next series addresses PI3Kγ (p110γ) (Homo sapiens, UniProt P48736). To be noted: cited from earlier work.
Setting [8] is: sensitive leukemic cells, 48 h exposure to 500 nM (Example 8).

Counter-ions that a name gives are not always drawn.

Chain of FKBP12 (P62942 whole entry, species assumed): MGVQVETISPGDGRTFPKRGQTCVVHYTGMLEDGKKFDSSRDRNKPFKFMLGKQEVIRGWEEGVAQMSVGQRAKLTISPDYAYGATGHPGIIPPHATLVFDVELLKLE
Chain of PI3Kγ (p110γ) (P48736 whole entry, species assumed): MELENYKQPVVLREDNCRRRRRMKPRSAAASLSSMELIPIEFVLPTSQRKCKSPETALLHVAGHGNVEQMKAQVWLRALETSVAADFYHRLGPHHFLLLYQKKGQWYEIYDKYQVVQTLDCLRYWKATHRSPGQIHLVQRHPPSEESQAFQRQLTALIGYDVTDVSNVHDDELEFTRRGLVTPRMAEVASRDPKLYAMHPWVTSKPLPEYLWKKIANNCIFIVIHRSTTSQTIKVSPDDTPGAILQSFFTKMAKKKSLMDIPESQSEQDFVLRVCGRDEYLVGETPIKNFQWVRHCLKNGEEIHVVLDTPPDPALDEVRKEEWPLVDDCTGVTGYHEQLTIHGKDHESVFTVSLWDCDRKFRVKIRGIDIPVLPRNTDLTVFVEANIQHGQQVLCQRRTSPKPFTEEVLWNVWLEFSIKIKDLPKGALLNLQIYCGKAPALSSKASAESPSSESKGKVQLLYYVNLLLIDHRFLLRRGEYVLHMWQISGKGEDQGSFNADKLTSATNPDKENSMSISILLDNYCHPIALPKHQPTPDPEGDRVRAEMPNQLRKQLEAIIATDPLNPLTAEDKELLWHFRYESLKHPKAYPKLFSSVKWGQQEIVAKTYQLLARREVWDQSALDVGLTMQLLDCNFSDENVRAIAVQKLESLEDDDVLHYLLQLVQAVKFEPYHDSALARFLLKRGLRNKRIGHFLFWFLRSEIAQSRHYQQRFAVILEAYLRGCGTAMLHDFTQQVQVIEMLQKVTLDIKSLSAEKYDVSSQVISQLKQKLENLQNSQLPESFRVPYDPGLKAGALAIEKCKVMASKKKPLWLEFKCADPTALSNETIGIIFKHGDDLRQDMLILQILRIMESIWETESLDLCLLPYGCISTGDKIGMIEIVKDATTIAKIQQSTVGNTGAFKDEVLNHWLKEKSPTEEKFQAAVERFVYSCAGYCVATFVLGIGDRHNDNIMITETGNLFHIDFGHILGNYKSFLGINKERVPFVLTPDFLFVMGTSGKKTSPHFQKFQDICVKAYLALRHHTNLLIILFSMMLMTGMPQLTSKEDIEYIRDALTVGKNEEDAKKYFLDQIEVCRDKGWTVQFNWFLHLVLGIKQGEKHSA
Chain of HDAC3 (O15379 whole entry, species assumed): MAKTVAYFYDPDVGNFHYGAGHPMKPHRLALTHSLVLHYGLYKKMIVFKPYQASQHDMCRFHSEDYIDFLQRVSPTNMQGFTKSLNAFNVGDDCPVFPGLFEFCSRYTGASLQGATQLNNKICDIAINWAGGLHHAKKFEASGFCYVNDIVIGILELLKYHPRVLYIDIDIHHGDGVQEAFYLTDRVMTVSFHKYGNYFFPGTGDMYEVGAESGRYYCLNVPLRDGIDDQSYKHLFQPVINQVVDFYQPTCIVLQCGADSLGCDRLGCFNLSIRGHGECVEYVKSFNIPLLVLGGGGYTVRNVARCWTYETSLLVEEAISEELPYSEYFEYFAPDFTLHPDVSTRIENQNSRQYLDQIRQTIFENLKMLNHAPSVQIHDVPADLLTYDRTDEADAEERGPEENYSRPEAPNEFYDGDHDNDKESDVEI
Chain of HDAC3 (Q9Y618 395-489 partner limits assumed, species assumed): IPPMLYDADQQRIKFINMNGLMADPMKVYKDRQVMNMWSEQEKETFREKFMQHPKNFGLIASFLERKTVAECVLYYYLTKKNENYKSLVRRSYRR
Chain of PI3Kβ (p110β) (P42338 whole entry, species assumed): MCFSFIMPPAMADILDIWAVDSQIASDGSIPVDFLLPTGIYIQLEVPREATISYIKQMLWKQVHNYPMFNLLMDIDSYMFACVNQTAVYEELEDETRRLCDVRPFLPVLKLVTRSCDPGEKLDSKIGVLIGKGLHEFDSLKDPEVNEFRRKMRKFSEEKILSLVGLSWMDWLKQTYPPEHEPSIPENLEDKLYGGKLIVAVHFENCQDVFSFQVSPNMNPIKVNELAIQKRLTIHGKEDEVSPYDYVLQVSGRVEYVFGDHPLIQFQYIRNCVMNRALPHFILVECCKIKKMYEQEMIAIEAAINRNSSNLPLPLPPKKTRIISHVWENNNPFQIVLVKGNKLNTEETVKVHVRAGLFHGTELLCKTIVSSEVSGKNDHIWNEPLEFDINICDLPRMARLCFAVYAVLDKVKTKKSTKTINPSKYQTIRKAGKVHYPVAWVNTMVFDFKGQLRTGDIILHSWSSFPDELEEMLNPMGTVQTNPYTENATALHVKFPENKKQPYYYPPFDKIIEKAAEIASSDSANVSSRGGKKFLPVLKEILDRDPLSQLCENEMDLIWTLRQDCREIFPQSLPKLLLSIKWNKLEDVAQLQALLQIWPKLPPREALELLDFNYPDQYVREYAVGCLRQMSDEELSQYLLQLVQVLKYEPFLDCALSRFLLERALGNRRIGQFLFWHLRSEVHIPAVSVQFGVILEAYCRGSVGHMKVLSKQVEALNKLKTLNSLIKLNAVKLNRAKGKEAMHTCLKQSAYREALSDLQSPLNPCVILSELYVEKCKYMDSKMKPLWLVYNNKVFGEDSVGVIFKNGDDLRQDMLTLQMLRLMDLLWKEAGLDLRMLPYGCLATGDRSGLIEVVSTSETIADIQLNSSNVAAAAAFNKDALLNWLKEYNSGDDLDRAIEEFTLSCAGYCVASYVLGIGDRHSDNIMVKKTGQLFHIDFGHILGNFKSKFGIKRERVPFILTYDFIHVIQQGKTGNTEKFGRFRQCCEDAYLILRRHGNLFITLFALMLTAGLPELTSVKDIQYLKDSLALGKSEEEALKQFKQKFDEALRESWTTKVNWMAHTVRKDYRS
Chain of PI3Kβ (p110β) (P27986 whole entry partner, species assumed): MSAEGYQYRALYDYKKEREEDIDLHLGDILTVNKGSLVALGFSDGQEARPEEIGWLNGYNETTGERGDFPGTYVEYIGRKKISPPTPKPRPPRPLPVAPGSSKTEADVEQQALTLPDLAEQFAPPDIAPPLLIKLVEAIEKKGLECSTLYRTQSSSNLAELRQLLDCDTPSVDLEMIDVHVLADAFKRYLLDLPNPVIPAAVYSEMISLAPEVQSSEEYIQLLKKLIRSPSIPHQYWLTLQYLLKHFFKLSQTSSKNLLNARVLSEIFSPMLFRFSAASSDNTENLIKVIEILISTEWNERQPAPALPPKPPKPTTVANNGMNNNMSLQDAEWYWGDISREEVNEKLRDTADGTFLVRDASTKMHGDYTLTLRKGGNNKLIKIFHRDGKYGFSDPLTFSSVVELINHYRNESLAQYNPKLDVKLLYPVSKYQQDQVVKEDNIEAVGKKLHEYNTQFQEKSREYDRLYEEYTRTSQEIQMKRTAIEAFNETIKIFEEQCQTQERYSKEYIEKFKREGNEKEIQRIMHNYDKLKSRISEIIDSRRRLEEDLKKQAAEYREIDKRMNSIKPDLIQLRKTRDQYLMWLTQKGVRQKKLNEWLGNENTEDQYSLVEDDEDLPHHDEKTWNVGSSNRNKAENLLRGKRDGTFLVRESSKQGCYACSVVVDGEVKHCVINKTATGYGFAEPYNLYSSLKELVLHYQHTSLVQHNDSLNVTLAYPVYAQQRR

The term IC50 denotes the concentration at which inhibition is half-maximal. As to `CC(C)[C@H](C(=O)Nc1ccc(C(=O)NO)cc1)c1ccccc1` [AR-42, (S)-N-hydroxy-4-(3-methyl-2-phenylbutanamido)benzamide], the concentration for half-maximal inhibition (IC50) in the series on HDAC was 30 nM.
As to `Cc1cc(Cl)ccc1OCCCC(=O)NO` [Droxinostat, 4-(4-Chloro-2-methylphenoxy)-N-hydroxybutanamide], on HDAC3, the IC50 was 16900 nM.
With `CO[C@H]1C[C@@H]2CC[C@@H](C)[C@@](O)(O2)C(=O)C(=O)N2CCCC[C@H]2C(=O)O[C@H]([C@H](C)C[C@@H]2CC[C@@H](OCCO)[C@H](OC)C2)CC(=O)[C@H](C)/C=C(\C)[C@@H](O)[C@@H](OC)C(=O)[C@H](C)C[C@H](C)/C=C/C=C/C=C/1C` [Everolimus], on FKBP12, the half-maximal inhibitory concentration (IC50) is 1.6 to 2.4 nM.
As for `CCN(CC)Cc1ccc2cc(COC(=O)Nc3ccc(C(=O)NO)cc3)ccc2c1` [ITF2357], in the series with HDAC, the IC50 is 7.5 to 16 nM.
As to `O=C(/C=C/c1ccc(CN(CCO)CCc2c[nH]c3ccccc23)cc1)NO` [LAQ824], the IC50 in the series with HDAC was 32 nM.
Take `CN(C)c1ccc(C(=O)NCCCCCCC(=O)NO)cc1` [M344]: in the series on HDAC, the IC50 is 100 nM.
On to `Cn1c(/C=C/C(=O)NO)ccc1/C=C/C(=O)c1cccc(F)c1` [MC1568], for which the half-inhibitory concentration (IC50) in the series on HDAC is 220 nM.
`COc1ccc(-c2ccc3ncc4c(c3c2)n(-c2ccc(N3CCNCC3)c(C(F)(F)F)c2)c(=O)n4C)cn1` [NVP-BGT226]: the concentration for half-maximal inhibition (IC50) in the series with PI3K/mTOR is 1 nM.
As to `COc1ccc(-c2cc3c(C)nc(N)nc3n([C@H]3CC[C@H](OCCO)CC3)c2=O)cn1` [PF-04691502], the IC50 was 7.5 nM in [1] and 3.8 nM in series [2].
Regarding `Cc1[nH]c2ccccc2c1CCNCc1ccc(/C=C/C(=O)NO)cc1` [Panobinostat], the concentration for half-maximal inhibition (IC50) with Reh cells is 20 nM; in the series on MOLT-4 cells, 5 nM.
Turning to `CCCCc1nc2cc(/C=C/C(=O)NO)ccc2n1CCN(CC)CC` [SB939, (E)-3-(2-butyl-1-(2-(diethylamino)ethyl)-1H-benzo[d]imidazol-5-yl)-N-hydioxyacrylamide], in the series on HDAC, the IC50 is 40 to 140 nM.
`CO[C@H]1C[C@@H]2CC[C@@H](C)[C@@](O)(O2)C(=O)C(=O)N2CCCC[C@H]2C(=O)O[C@H]([C@H](C)C[C@@H]2CC[C@@H](OC(=O)C(C)(CO)CO)[C@H](OC)C2)CC(=O)[C@H](C)/C=C(\C)[C@@H](O)[C@@H](OC)C(=O)[C@H](C)C[C@H](C)/C=C/C=C/C=C/1C` [Temsirolimus]: the concentration for half-maximal inhibition (IC50) at mTOR was 1.76 nM.
Turning to `CCCC(CCC)C(=O)O` [Valproic acid sodium salt], the half-inhibitory concentration (IC50) with HDAC was 400000 nM.
As a reminder, the GI50 is the concentration giving 50% growth inhibition. As to `Cc1sc2c(c1C)C(c1ccc(Cl)cc1)=N[C@@H](CC(=O)Nc1ccc(O)cc1)c1nnc(C)n1-2` [compound (1-1), 2-[(6S)-4-(4-chlorophenyl)-2,3,9-trimethyl-6H-thienol[3,2-f]-[1,2,4]triazolo[4,3-a][1,4]diazepin-6-yl]-N-(4-hydroxyphenyl)acetamide dihydrate], the “BRD2 and BRD4 protein levels” value in the series on BRD2 and BRD4 was “without modifying protein levels”. For the same compound, the “mRNA levels of BRD2 and BRD4” value in the series on BRD2 and BRD4 was “up-regulation”. The induction of apoptosis result in series [3] (sensitive cell lines (Example 7)) is given as “without induction of apoptosis”; in [3] (setting [8]) it was “slight induction of apoptosis”. Besides, the cell cycle effect result is “cell cycle arrest in G1” in series [3] (sensitive cell lines, time-dependent (Example 7)) and “increased proportion of cells in cell cycle phase G0/G1” in series [3] (setting [8]). Further, in the series on c-MYC [4] (K562, after 4-h and 24-h exposure), the “levels of c-MYC RNA” value is given as “decreased levels”. Moreover, the cMYC protein levels entry in the series on c-MYC [4] (K562, even after 72 h of treatment) is reported as “constant”. The “c-MYC mRNA and protein levels” value with c-MYC [5] (sensitive cell lines (Example 8)) was “rapid and sustained downregulation”. Besides, the “cMYC mRNA and protein levels” value in the series with c-MYC [5] (sensitive cell lines, 500 nM, after 6-h and up to 72-h treatment) is on record as “down-regulated”. Further, the 50% growth inhibitory concentration (GI50) in the series with HL60 is 230 to 384 nM; in the series on Jurkat, 230 to 384 nM; in the series on U937 it was 230 to 384 nM; in series [6], at least 1000 nM. Besides, in [7], the “effect in concomitant combination with demethylating agents, HDAC and mTOR inhibitors, glucocorticoids, and conventional cytotoxic drugs” value is given as “strong synergistic effects”.
Regarding “(3S,6S,9S,15aR)-9-((R)-sec-butyl)-6-((1-methoxy-1H-indol-2-yl)methyl)-3-(6-oxooetyl)decahydro-1H-pyrido[1,2-a][1,4,7,10]tetraazacyclododecine-1,4,7,10(12H)-tetraone [Apicidin]”, the IC50 in the series on HDAC was 0.7 nM.
What is called Ki is a measure of affinity in units of concentration, obtained from inhibition or displacement. GSK2126458: the Ki at PI3Kβ (p110β) was 0.13 nM; on PI3Kγ (p110γ), 0.024 nM.
